Results reported in patent US20240368065A1 (HELMHOLTZ-ZENTRUM FÜR INFEKTIONSFORSCHUNG GMBH, priority 2021, published 2024).

Key:
[1] = biological target: T1, purified hACOD1 (Homo sapiens, UniProt A6NK06); assay: hACOD1 enzyme activity in vitro assay, competitive inhibition; type: biochemical; conditions: purified hACOD1, substrate cis-aconitate, competitive inhibition fit, pH 6.5, 37° C.; read-out: Inhibition constant (Ki)
T1 construct: made in house
T1 sequence (A6NK06 1-481): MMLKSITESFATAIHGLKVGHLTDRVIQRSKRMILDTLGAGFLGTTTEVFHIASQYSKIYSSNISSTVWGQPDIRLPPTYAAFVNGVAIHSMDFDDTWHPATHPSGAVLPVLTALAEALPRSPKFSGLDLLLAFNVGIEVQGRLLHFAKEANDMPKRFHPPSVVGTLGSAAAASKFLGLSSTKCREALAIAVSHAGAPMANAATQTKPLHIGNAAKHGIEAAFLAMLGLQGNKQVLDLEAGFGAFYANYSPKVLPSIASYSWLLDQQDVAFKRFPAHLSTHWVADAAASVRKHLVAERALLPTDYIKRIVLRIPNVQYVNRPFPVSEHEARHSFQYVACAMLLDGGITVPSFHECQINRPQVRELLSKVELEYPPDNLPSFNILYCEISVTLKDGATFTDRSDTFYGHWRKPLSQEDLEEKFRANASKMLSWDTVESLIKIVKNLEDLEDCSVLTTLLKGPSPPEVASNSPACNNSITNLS
Description: The activity of purified hACOD1 was measured in the presence of increasing concentrations of substrate and the five inhibitors. The data were globally fitted to the Michaelis-Menten equation for competitive inhibition.
The activity of purified hACOD1 was measured in the presence of increasing concentrations of substrate and the five inhibitors. The data was globally fitted to the Michaelis-Menten equation for competitive inhibition.
The compounds were dissolved in water, neutralized with NaOH and stored at −20° C. For the assay, 125 μL 0.2 M sodium phosphate buffer, pH 6.5, was mixed on ice with 5 μL enzyme, 10 μl inhibitor (or 10 μl water) and 10 μL substrate (cis-aconitic acid). The following combinations of enzyme amount and substrate concentration were used for CA: 2 μg enzyme and 0.1 mM substrate, 2 μg and 0.3 mM, 3 […] and 1 mM, 5 μg and 3.0/10.0 mM. For the other inhibitors, 2 μg enzyme and 0.1/0.2/0.5 mM substrate, 3 μg and 1.0/2.0 mM, 5 μg and 5.0/10.0 mM. Incubation for 10 min at 37° C. was immediately followed by heat inactivation at 95° C. for 3 min. Protein precipitate was pelleted by centrifugation for 1 h. Supernatants were acidified with 100 μL 100 mM H3PO4.

[2] = test system: mitochondrial ROS in NRF2−/− human vascular endothelial cells; assay: Mitochondrial ROS in human vascular endothelial cells infected with human coronavirus 229E (flow cytometry); type: cell-based; conditions: NRF2−/− cells infected with human coronavirus 229E, 24 h after infection, co-incubation
Description: FIG. 10: (Z)-2-Ethylbut-2-enedioic acid maintains anti-oxidative properties. Wild-type or NRF2−/−human vascular endothelial cells were infected with human coronavirus 229E (a low pathogenic, seasonal strain), and mitochondrial ROS levels were measured by flow cytometry 24 h after infection.
Maintenance of anti-ROS activity of (Z)-2-ethylbut-2-enedioic acid (“ethylcitraconic acid”; Formula VIII) is shown in a model of infection of cells by a human coronavirus 229E, a low pathogenic CoV strain. Despite the methylation of CA evident in Formel VIII (a methylation that could theoretically lead to loss of electrophilicity), the compound (Z)-2-Ethylbut-2-enedioic acid maintains anti-oxidative properties. Wild-type or NRF2−/−human vascular endothelial cells were infected with human coronavirus 229E (a low pathogenic, seasonal strain), and mitochondrial ROS levels were measured by flow cytometry 24 h after infection.

[3] = biological target: T2, ACOD1 (Homo sapiens, UniProt A6NK06); assay: Cellular ACOD1 inhibition: intracellular itaconate in PMA-differentiated THP1 stimulated with LPS/IFNγ (HPLC-MS/MS); type: cell-based; conditions: compared with citraconic acid
T2 construct: THP1 were differentiated with PMA and then stimulated with LPS/IFNγ for 24 hours; endogenous in cells; host or cells: THP1 (PMA-differentiated, LPS/IFNγ-stimulated)
T2 sequence (A6NK06 1-481): T1 sequence (A6NK06 1-481)
Description: FIG. 9: Ethyl homologue of the methyl group of citraconate enhances ACOD1 inhibition in a cellular assay. […] ACOD1 activity was assessed by measuring intracellular itaconate concentrations by HPLC-MS/MS as described in (Winterhoff,
Chen et al Metabolites 2021). IC50=inhibitory concentration 50%; CC50 =cytotoxic concentration 50%; SI=selectivity index=CC50/IC50.
Methylation of the […] of citraconate thus enhances ACOD1 inhibition in a cellular assay. […] ACOD1 activity was assessed by measuring intracellular itaconate concentrations by HPLC-MS/MS as described in Winterhoff, Chen et al (Metabolites 2021).

[4] = test system: phosphorylated STAT1; assay: STAT1 phosphorylation immunoblot in influenza A virus-infected A549 and dTHP1 cells; type: cell-based, human; conditions: A549 and dTHP1 cells infected with influenza A virus; anti-P-STAT1 immunoblot
Description: A549 and dTHP1 cells were infected with influenza A virus and treated with CA, IA or MA.
2×10^5 dTHP1 cells were infected with influenza A virus (H1N1) strain PR8M at a multiplicity of infection of 1. 12 h after infection, cells were washed in buffer, pelleted, and protein extracts resolved by gel electrophoresis and transferred to a nylon membrane. Bands corresponding to phosphorylated Stat1 protein were visualized by enhanced chemiluminescense using specific anti-P-STAT1 primary antibody and […] as secondary antibody.
As can be observed from FIG. 3, A549 and dTHP1 cells were infected with influenza A virus and treated with CA, IA or MA. […] STAT1 phosphorylation is known to be associated with inflammation, and thus CA represents an effective substance in reducing inflammation.

[5] = test system: influenza A virus (H1N1/34/PR/8M); type: cell-based
[6] = test system: Nrf2 signaling (AKR1B10 mRNA); assay: Induction of Nrf2 signaling: AKR1B10 mRNA in HaCaT cells (RT-qPCR); type: cell-based, human; conditions: 12 hours treatment
Description: Induction was greatest by CA, intermediate by IA and lowest by MA.
The immortalized human keratinocyte cell line HaCaT was grown in RPMI 1640 medium (GIBCO Life Technologies, Karlsruhe, Germany) supplemented with 30% FCS, 100 μg/mL pen/strep, 500 μg/mL gentamycin and 1% each Glutamax and nonessential amino acid solution (NEAA; GIBCO Life Technologies, Karlsruhe, Germany). Cells were treated with the indicated concentrations of itaconate, mesaconate and citraconate for 12 hours. Cells were then washed in buffer, pelleted, and RNA was extracted for subsequent analysis of expression of AKR1B10, which is specifically activated by Nrf2 signaling in this cell line. AKR1B10 mRNA expression was determined by RT-qPCR.
Induction was greatest by CA compared to both IA and MA.

[7] = test system: CXCL10 mRNA (encoding IP-10); assay: CXCL10 mRNA expression in influenza A virus-infected dTHP1 cells (RT-qPCR); type: cell-based, human; conditions: dTHP1 infected with influenza A virus PR8M, MOI 1, 12 h after infection; increasing concentrations; compared among CA, IA, MA
[8] = biological target: succinate dehydrogenase (SDH) (Homo sapiens, UniProt P31040); assay: Preliminary data on binding to succinate dehydrogenase
succinate dehydrogenase (SDH), sequence (P31040 43-664): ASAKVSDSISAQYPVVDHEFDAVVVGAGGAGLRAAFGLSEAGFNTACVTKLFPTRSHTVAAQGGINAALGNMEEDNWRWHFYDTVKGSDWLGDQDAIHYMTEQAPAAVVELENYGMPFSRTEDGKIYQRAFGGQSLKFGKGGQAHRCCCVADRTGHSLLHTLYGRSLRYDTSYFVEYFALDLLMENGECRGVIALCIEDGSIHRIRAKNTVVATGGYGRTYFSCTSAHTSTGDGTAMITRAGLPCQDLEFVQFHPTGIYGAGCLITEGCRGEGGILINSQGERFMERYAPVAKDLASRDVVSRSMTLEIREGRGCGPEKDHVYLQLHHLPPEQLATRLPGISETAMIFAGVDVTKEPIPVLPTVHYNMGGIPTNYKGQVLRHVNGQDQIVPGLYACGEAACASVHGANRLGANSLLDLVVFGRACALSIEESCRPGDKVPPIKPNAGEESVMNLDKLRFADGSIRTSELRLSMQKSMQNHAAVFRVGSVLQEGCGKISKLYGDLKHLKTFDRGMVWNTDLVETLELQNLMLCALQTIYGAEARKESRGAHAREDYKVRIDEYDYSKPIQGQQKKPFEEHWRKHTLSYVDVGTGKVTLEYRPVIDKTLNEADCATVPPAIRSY
succinate dehydrogenase (SDH), sequence (P21912 29-280 partner): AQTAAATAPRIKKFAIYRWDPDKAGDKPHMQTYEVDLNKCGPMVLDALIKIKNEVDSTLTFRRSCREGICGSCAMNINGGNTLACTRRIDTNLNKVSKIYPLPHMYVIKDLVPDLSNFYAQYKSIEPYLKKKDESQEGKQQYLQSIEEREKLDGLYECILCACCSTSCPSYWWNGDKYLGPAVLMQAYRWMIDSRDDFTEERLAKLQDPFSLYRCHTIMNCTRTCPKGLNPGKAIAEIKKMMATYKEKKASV
succinate dehydrogenase (SDH), sequence (Q99643 30-169 partner): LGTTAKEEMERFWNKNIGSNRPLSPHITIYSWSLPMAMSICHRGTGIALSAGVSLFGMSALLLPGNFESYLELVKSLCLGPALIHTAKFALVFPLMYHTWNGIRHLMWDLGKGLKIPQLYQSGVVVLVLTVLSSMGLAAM
succinate dehydrogenase (SDH), sequence (O14521 57-159 partner): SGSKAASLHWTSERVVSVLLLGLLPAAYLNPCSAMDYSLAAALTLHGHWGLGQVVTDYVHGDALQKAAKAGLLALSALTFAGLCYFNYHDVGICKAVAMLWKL

[9] = test system: reactive oxygen species (ROS) in dTHP1 cells; assay: Mitochondrial ROS in influenza A virus-infected dTHP1 cells (MitoSox Red, flow cytometry); type: cell-based, human; conditions: dTHP1 infected with influenza A virus, 10 mM compound, 12 h after infection
Description: dTHP1 Cells were seeded at a density of 2×10^5 cells per well in a 12-well plate and infected with influenza A virus at an MOI of 1. Mitochondrial ROS were measured 12 h after infection. Cells were incubated for 5 min with medium containing 5 μM of MitoSox Red (mitochondrial superoxide indicator, Invitrogen) and were washed with PBS. Cells were then resuspended in cold PBS and mitochondrial ROS was measured via the phycoerythrin (PE) channel using a BD™ LSR-II flow cytometer.
As can be observed in FIG. 2, dTHP1 cells were infected with influenza A virus, incubated with 10 mM CA, IA, or MA, and reactive oxygen species (ROS) were measured by flow cytometry.

SMILES | Ki [1] | STAT1 phosphorylation [4] | Induction of AKR1B10 mRNA (Nrf2 signaling) [6] | other results
O=C(O)/C=C(\C(=O)O)c1ccccc1 [2-phenylmaleic acid, 2-Phenylmaleic acid] | 60 ± 30 µM | – | – | –
CC1CCC(C(=O)O)=C1C(=O)O (centres unmarked) [3-Methyl-cyclopent-1-ene-1,2-dicarboxylic acid] | 0.335 µM | – | – | –
CC/C(=C/C(=O)O)C(=O)O [(Z)-2-ethylbut-2-enedioic acid] | 0.235 ± 0.021 µM | – | – | Mitochondrial ROS levels [2]: reduced to levels seen in uninfected WT cells; Cytotoxicity [3]: remains the same; Selectivity index (CC50/IC50) [3]: increases; ACOD1 inhibition in cellular model ([3]; dTHP1, LPS/IFNγ 24 hours, intracellular itaconate): increased ACOD1 inhibition
C/C(=C/C(=O)O)C(=O)O [citraconic acid] | – | reduced STAT1 phosphorylation | greatest | Viral RNA (hemagglutinin [HA] mRNA) [5]: not influenced; Viral titres in culture supernatants [5]: significantly reduced; Reduction of CXCL10 mRNA [7]: greatest; Direct binding to SDH [8]: does not directly bind SDH; Reduction of reactive oxygen species (ROS) [9]: significant reduction
O=C(O)C1=C(C(=O)O)CCC1 [cyclopent-1-ene-1,2-dicarboxylic acid, Cyclopent-1-ene-1,2-dicarboxylic acid] | 39 ± 2 µM | – | – | –
C=C(CC(=O)O)C(=O)O [itaconic acid] | – | reduced STAT1 phosphorylation | intermediate | Reduction of reactive oxygen species (ROS) [9]: significant reduction
C/C(=C\C(=O)O)C(=O)O [mesaconic acid] | – | reduced STAT1 phosphorylation | lowest | –
